{"source": "paper PMC11856108", "about": "“Capsaicin (But Not Other Vanillins) Enhances Estrogen Binding to Its Receptor: Implications for Power Sports and Cancers” (Life, 2025)", "key": {"Rats (female)": {"system": "Rats (female)", "set-up": "method as in PMID 29294454", "details": "cited from earlier work"}, "ESR1": {"target": "T1, ESR1 (Homo sapiens, UniProt P03372)", "T1 construct": "purchased Invitrogen-Thermofisher", "T1 sequence (P03372 1-595)": "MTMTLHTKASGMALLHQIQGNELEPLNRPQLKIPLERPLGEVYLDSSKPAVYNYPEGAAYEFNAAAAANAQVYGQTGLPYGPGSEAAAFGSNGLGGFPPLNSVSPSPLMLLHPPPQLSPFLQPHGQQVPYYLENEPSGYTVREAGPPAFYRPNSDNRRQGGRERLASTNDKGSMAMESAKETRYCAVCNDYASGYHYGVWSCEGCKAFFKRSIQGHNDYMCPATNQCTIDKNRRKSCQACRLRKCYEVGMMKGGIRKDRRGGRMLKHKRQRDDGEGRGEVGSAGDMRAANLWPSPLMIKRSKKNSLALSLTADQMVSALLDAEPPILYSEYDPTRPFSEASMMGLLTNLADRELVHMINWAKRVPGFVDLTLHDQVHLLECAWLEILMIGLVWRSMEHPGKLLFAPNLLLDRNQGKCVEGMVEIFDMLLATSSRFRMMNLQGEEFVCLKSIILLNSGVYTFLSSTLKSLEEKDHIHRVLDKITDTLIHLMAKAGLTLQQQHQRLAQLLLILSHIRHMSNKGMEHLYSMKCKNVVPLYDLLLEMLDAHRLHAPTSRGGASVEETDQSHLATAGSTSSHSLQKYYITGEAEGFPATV", "assay": "Competitive-binding ELISA of EST-HRP binding to the estrogen receptor", "details": "for shift of the estradiol (EST-HRP) binding curve: maximal shift"}, "Human": {"system": "Human", "set-up": "method as in PMID 25621172", "details": "cited from earlier work"}, "Mice": {"system": "Mice", "set-up": "method as in doi:10.32604/biocell.2023.028222", "details": "cited from earlier work"}, "[1]": {"set-up": "method as in PMID 26247812", "details": "DPPC mem-brane model; cited from earlier work"}, "[2]": {"assay": "Binding to steroid hormone by UV spectroscopy", "experimental": "UV spectroscopy in a crystal plate was used to investigate whether CAP has specificity for estrogen alone or whether it can bind to other naturally occurring hormones. To start, CAP was dissolved in a 1:1 solution of water to ethanol at 1 mg/mL ( 3.27×10^−3 M ) and then diluted by thirds eight times. Next, the hormones were dissolved in a 1:1 solution of water to ethanol at a 1/100 dilution. An amount of 50 μL of each CAP dilution was added to 3 wells of a crystal plate, with one well serving as the control, with another 50 μL of 1:1 water to ethanol added, and the other two serving as experimental duplicates, with 50 μL of the prepared hormone solution added. Then, two additional wells were prepared to serve as controls: one containing 100 μL of 1:1 water to ethanol and the other containing 50 μL of prepared hormone solution and 50 μL of 1:1 water to ethanol. Finally, the plate was incubated for 1 h and read in a Spectramax UV-VIS scanning spectrophotometer, spanning wavelengths from 190 to 400 nm. Data analysis involved the subtraction of observed absorbance values from expected absorbance values generated from the control wells ([CAP + 1:1 solution] + [hormone + 1:1 solution] − [1:1 solution]) and plotting them as a function of CAP concentration. Because the solvent (1:1 solution of water–ethanol) was used as a control and subtracted from all wells, the resulting data reflected only the absorbances of the solute compounds. Since each compound has a different lambda maximal absorbance, analysis of the resulting data required finding one common wavelength at which the additions and subtractions of the spectra could be carried out and at which the absorbance of each compound was maximized.\nExperiments were also performed to test whether the enhancement or antagonism observed in estradiol binding to the ESR1 might be due to vanilloid compounds binding directly to estradiol or to related steroidal hormones, perhaps protecting them from oxidation or forming a complex that prevented the estradiol binding to its receptor. No vanilloid compound bound to a measurable degree to estradiol or any other steroidal hormone tested."}, "T1DM rats": {"system": "T1DM rats", "set-up": "method as in PMID 28230360", "details": "cited from earlier work"}, "Human HepG2 cells": {"system": "Human HepG2 cells", "set-up": "method as in PMID 30987128", "details": "cited from earlier work"}}, "note": "Entries after “also recorded” stand apart in the source; their conditions may differ. Where two headings read alike, the source gives them in different places.", "data": [{"smiles": "COc1cc(CNC(=O)CCCC/C=C/C(C)C)ccc1O", "note": "[Capsaicin, trans-8-methyl-N-vanillyl-6-nonenamide]", "values": [{"measurement": "Cancer-Related Effects", "setting": "Rats (female)", "value": ">Blocks formation of nitrosomethylurea-induced mammary tumors"}, {"measurement": "Downregulates or Inhibits", "setting": "Rats (female)", "value": ">Decreased antioxidant enzymes"}, {"measurement": "Upregulates", "setting": "Rats (female)", "value": ">Increases estradiol, progesterone, CEA and malondialdehyde levels"}, {"measurement": "competition with estradiol for binding to ESR1", "setting": "ESR1", "value": "did not compete with estradiol for binding to ESR1"}, {"measurement": "effect on estradiol (EST-HRP) binding to the estrogen receptor", "setting": "ESR1; listed as CAP", "value": "enhanced binding of estradiol to its receptor in a concentration-dependent manner; also recorded: increases binding of estradiol to its receptor"}, {"measurement": "shift of the estradiol (EST-HRP) binding curve", "setting": "ESR1", "value": "approximately a half of a log unit"}, {"measurement": "shift of the estradiol (EST-HRP) binding curve", "setting": "ESR1; listed as CAP", "value": "half-log leftward shift"}, {"measurement": "Cancer-Related Effects", "setting": "Human", "value": ">Induces apoptosis"}, {"measurement": "Downregulates or Inhibits", "setting": "Human", "value": ">Bax/Bcl2 pathway → decreased expression of Bcl-2 (prosurvival gene)"}, {"measurement": "Upregulates", "setting": "Human", "value": ">Bax/Bcl2 pathways → increased expression of Bax (apoptotic gene)"}, {"measurement": "Cancer-Related Effects", "setting": "Mice", "value": ">Attenuates testosterone-induced prostate growth"}, {"measurement": "Upregulates", "setting": "[1]", "value": ">Increases membrane fluidity"}, {"measurement": "Binding (Kd) 4-Androstene-3,17-dione", "setting": "[2]", "value": "No binding"}, {"measurement": "Binding (Kd) 5-Pregnan-3β-OL-2O-one", "setting": "[2]", "value": "No binding"}, {"measurement": "Binding (Kd) Estradiol", "setting": "[2]", "value": "No binding"}, {"measurement": "Binding (Kd) Estriol", "setting": "[2]", "value": "No binding"}, {"measurement": "Binding (Kd) Progesterone", "setting": "[2]", "value": "No binding"}, {"measurement": "Binding (Kd) Estradiol", "setting": "[2]; listed as capsaicin", "value": "did not bind directly to estradiol"}, {"measurement": "Capsaicin Upregulates", "setting": "T1DM rats", "value": ">Serum INS (CAP 6 mg/kg)"}, {"measurement": "Downregulates or Inhibits", "setting": "T1DM rats", "value": ">Fasting blood glucose levels and serum level of glycosylated protein"}, {"measurement": "Capsaicin Upregulates", "setting": "Human HepG2 cells", "value": ">Activation of AMPK pathway"}, {"measurement": "Downregulates or Inhibits", "setting": "Human HepG2 cells", "value": "> Lipogenesis > Inhibition of AKT/mTOR pathway"}]}]}
